Source: patent US12721846B2, “Methods for treating behavioral and psychological symptoms in patients with dementia” (SUVEN LIFE SCIENCES LIMITED, priority 2019, dated 2026)
Entries after “also recorded” stand apart in the source; their conditions may differ.

Experiments:
[1] = 30 mg daily dose; patients with AD; cited from earlier work
[2] = cited from earlier work
[3] = system: DOI induced head twitch response (model of hallucination); experiment: DOI induced head twitch response; format: in vivo, rat; conditions: 1 mg/kg, p.o.; DOI 5 mg/kg s.c.; 10 min
Protocol: DOI induced head twitch response is considered to be a behavioral model of hallucination (Pharmacol Rep. 2012; 64(6):1567-72). Male Wistar rats of 200-290 g were weighed and randomized according to their body weights. On day 1, rats were first habituated to the arena for 15 min. […] 15 min before the trial, rats were subjected to habituation and immediately following the habituation, DOI, 5 mg/kg s.c was administered. The rats were then placed in the arena and head twitches were recorded for 10 min. Data were analyzed using GraphPad Prism software.

[4] = system: Swiss albino mice (aggression, duration of attack); experiment: Resident-intruder task; format: in vivo, mouse; conditions: masupirdine 0.30 mg/kg p.o. 60 min prior; donepezil or memantine 0.30 mg/kg i.p. 30 min prior; 10 min exposure
Protocol: Male Swiss albino mice of weight range 30-40 g (Resident) and 15-25 g (Intruder) were used. Resident mice were habituated individually with an ovariectomized female mouse in each cage for at least 2 weeks and intruders were habituated socially for at least 5 days. β-Estradiol at a dose of 0.2 mg/kg, s.c. was administered to ovariectomized female mice during habituation. After habituation for 3 weeks, the intruder was exposed to resident mice for a period of 10 min in the home cage of resident animal and duration of attack was recorded for two days (day 1 & 2). During this 10 min exposure period, ovariectomized female mice were removed from resident cage, resident animals were randomized based on their duration of attack. On day 4 (from initial exposure), resident animals were administered respective treatments. […] After post dose interval resident mice were exposed to same intruder for 10 min and duration of attack was recorded. Data were analyzed using GraphPad Prism software.

[5] = system: norepinephrine and dopamine levels in prefrontal cortex; experiment: Microdialysis: modulation of norepinephrine and dopamine levels in cortex; format: in vivo, rat; conditions: male Wistar rats, masupirdine 3 mg/kg p.o., donepezil or memantine 1 mg/kg s.c.
Text: Male Wistar rats (240-300 g body weight) were stereotaxically implanted with a microdialysis guide cannula in prefrontal cortex (PFC; AP: +3.2 mm, ML: −0.5 mm, DV: −1.0 mm) under isoflurane anesthesia. […] The rats were allowed to recover individually for four days in a round bottom Plexiglas bowl with free access to feed and water.
Sixteen hours before start of the study, a pre-equilibrated microdialysis probe (4 mm dialysis membrane) was inserted into PFC through the guide cannula. On the day of study, probe was perfused with artificial cerebrospinal fluid (aCSF; NaCl 150 mmol, KCl 3.0 mmol, MgCl2 0.9 mmol, CaCl2. 2H2O 1.7 mmol, pH 6.2) at a flow rate of 1.5 μL/min and a stabilization period of 2 h was maintained. […] Dialysates were stored below −50° C. prior to analysis.
Norepinephrine and dopamine levels in dialysates were quantified using LC-MS/MS method.
Statistical significance was considered at a p value less than 0.05.

CN(C)CCCC1(c2ccc(F)cc2)OCc2cc(C#N)ccc21 (centres unmarked) [Citalopram]
adverse effects seen in treatment group [1]: Worsening of cognition; also recorded: QT interval prolongation

CC(C)COc1ccc(CNC(=O)N(Cc2ccc(F)cc2)C2CCN(C)CC2)cc1 [Pimavanserin]
effect for agitation ([2]; AD study): no effect
effect on NPI-NH psychosis scale ([2]; week 6): statistically significant effect

COc1ccc2c(c1)c(CN1CCN(C)CC1)cn2S(=O)(=O)c1ccccc1Br [masupirdine, 1-[(2-bromophenyl)sulfonyl]-5-methoxy-3-[(4-methyl-1-piperazinyl)methyl]-1H-indole]
number of head twitches [3]: significantly reduced the number of head twitches
duration of attack compared with basal [4]: equal duration of attack

CC12CC3CC(C)(C1)CC(N)(C3)C2 [memantine]
cortical dopamine levels, AUC of percent change [5]: 327.75±24.99
cortical norepinephrine levels, AUC of percent change [5]: 371.34±22.45
duration of attack compared with basal [4]: decrease in duration of attack when compared with its basal; however it was not statistically significant
